Results published in US9968582B2, “Use of a benzoate containing composition in urea cycle disorders and neurodegenerative disorders” (Rush University Medical Center, priority 2014, dated 2018).

Test system: male C57/BL6 mice
Assay: Chronic EAE (MOG35-55), clinical symptoms
Format: in vivo
Conditions: chronic model, FIG. 1C
Description: C57BL/6 mice were immunized with 100 μg of MOG35-55 as described above. Mice also received two doses of pertussis toxin (150 ng/mouse) on 0 and 2 dpi.
GTB was mixed in 0.5% methylcellulose (MC) and EAE mice were gavaged 100 μL GTB-mixed MC once daily using gavage needle. Therefore, control EAE mice received only MC as vehicle.
While female SJL/J mice are used to induce RR-EAE, chronic form of EAE is modeled in male C57/BL6 mice upon immunization with MOG35-55. Therefore, the inventor examined the efficacy of GTB in suppressing the disease process of chronic EAE.

## O=C(OCC(COC(=O)c1ccccc1)OC(=O)c1ccccc1)c1ccccc1 [GTB, glyceryl tribenzoate]
  clinical symptoms of EAE: strongly inhibited the clinical symptoms
